Here are results for four compounds from patent US20070149439A1 (priority 2001, published 2007).

Several values for one entry are separate records, joined by “and”; a condition that tells them apart may be missing. Identical values can stand only once. Like-named read-outs stand apart in the source and are kept apart here. Where no end group is shown, it is not given here.

The test system of assay [1] is cortical precursors in culture. The following applies: cited from earlier work.
Assay [2] has as its system VZ precursors of E15.5 rat cortex. From the text: (§1) For BrdU immunohistochemistry, E15.5 and E18.5 tissues were fixed in 4% PFA, paraffin-embedded, and sectioned (4 μm) coronally. E20.5 tissues were perfusion-fixed in 2% PFA, cryoprotected, and sectioned at 15 μm. The tissues were immunostained. Then, the tissues were double-labeled with antibodies to neuron specific markers TuJ1 (1:200, Biogenesis, Poole, United Kingdom), tau (1:200, I. Fischer, Med. Coll. Penn.) and MAP2c (1:2000, I. Fischer) or glial markers, vimentin (1:4, Roche) and GFAP (1:1000, Sigma), visualizing with Texas Red for BrdU and FITC for phenotypic markers. TUNEL assay was done according to the manufacturer (Oncor, Gaithersburg, Md.) on sections adjacent to those used for BrdU.
(§2) Transuterine intracerebroventricular injection. Intraventricular injection was done as described. Following anesthesia (ketamine 30 mg per kg/xylazine 3 mg per kg) and laparotomy of E15.5 pregnant dams, 1 μl of vehicle or factors and 0.05% fast green was delivered into the embryonic lateral ventricle through the uterine wall, using drawn capillary pipettes. Dye enhancement of the ventricles indicated successful injections. After closure, dams were injected subcutaneously with markers of DNA synthesis, [^3H]dT (4 μCi/g, NEN) and BrdU (100 μg/g) at 3 h and sacrificed at 4 h. One embryonic hemisphere was assayed for [^3H]dT incorporation and the other for immunohistochemistry.
(§3) For labeling index, the analysis was done in the dorsolateral sector of 3 non-adjacent coronal cortex sections per brain, using a camera lucida (Zeiss, Thornwood, N.Y.) under 400× magnification. For E15.5 sections, BrdU(+) nuclei and total nuclei were scored within a 100 μm×100, μm sector based on the ventricular surface extending to the pial surface. BrdU(+) cells in the CP were counted in centrally located sectors extending 100 μm (E18.5 sections) or 200 μm (E20.5 sections) in the mediolateral dimension.

Assay [3] relates to BrdU-labeled precursors in the CP.
Excerpt: as §1, §2, §3

Assay [4] deals with cerebral cortical precursors of E15.5 rat embryos. Nature of the assay: [3H]thymidine incorporation (DNA synthesis) in cerebral hemispheres after transuterine intracerebroventricular injection. The format is in vivo. The following applies: vs vehicle. How it is done: Transuterine intracerebroventricular injection. Intraventricular injection was done as described. […] Dye enhancement of the ventricles indicated successful injections.
Quantification. Newly synthesized DNA was measured after TCA precipitation. Tissues were homogenized in 10 volumes of distilled water. After reserving aliquots to assess total tissue [^3H]dT uptake, DNA was precipitated with 10% TCA, centrifuged, and washed twice in 10% TCA. Pellets were dissolved and counted along with aliquots by scintillation spectrometry.
Background: Uptake of a labelled nucleoside into DNA is a usual measure of proliferation.

The target of assay [5] is T1, PAC1 (Homo sapiens, UniProt P41586).
T1 sequence (P41586 21-468): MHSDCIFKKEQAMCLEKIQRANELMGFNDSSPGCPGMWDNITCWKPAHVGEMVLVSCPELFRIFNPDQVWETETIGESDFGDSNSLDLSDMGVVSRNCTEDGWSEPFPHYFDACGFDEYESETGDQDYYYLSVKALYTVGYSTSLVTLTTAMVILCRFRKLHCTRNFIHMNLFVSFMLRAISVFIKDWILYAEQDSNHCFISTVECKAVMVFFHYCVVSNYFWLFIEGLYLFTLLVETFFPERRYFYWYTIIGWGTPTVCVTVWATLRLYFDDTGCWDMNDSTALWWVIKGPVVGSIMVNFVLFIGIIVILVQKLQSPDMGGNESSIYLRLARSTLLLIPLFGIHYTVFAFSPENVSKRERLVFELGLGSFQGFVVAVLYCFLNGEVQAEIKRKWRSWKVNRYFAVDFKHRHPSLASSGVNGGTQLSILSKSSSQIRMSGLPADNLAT
The following applies: higher affinity than PACAP6-38; cited from earlier work.

[6] abbreviates: injectant volume 1 μl ICV at E15.5, 4 h.

Consider “Pituitary Adenylate Cyclase-Activating Polypeptide [PACAP]”, for which the “effect on proliferative effects of mitogenic IGF-I, bFGF and EGF” value in assay [1] is reported as “inhibited proliferative effects”. The “Labeling Index (LI), BrdU(+) nuclei in VZ” value in assay [2] (4 hours after ICV injection at E15.5, n=6/group) was found to be 26±1.3%. The “decrease of Labeling Index / mitotic labeling” value in assay [2] (4 hours after ICV injection at E15.5, vs vehicle) is 25% and 26%. In addition, the “less mitotically labeled (BrdU+) cells in the CP” value in assay [3] (3 days (E18.5) after PACAP administration at E15.5) was determined as 38%; in assay [3] (5 days (E20.5) after PACAP administration at E15.5), 33%. For the same compound, the “decrease of DNA synthesis, [3H]dT incorporation into cerebral hemispheres” value in assay [4] (PACAP 10^-5 M, ICV into E15.5 rat lateral ventricle, four hours later) stood at 24%.

Turning to “PACAP6-38: specific PAC1 antagonist (FTDSYSRYRKQMAVKKYLAAVLGKRYKQRVKNK; ends and bridges not checked)”, the “% Stimulation of DNA synthesis ([3H]dT incorporation)” value (shortened to “% Stimulation of DNA synthesis”) in assay [4] (setting [6]) came to 10±2.2%.

As for “M65: newly defined PAC1 antagonist derived from sand fly peptide maxadilan”, the “% Stimulation of DNA synthesis” value was 14% and 13.4 ± 4.6 % in assay [4] (setting [6]); 20% and 20.1 ± 7.0 % in assay [4] (injectant volume 2 μl (twice the dose) ICV at E15.5, 4 h). The “affinity for PAC1 relative to PACAP6-38” value in assay [5] was 6 fold.

Regarding `Nc1ncnc2c1ncn2[C@@H]1O[C@@H]2CO[P@@](O)(=S)O[C@H]2[C@H]1O` [Rp-cAMPS], the “% Stimulation of DNA synthesis” value in assay [4] (setting [6]) is reported as 28.3 ± 3.1 %.
